Laboratory results from patent US11629143B2, “HipK4 inhibitors and uses thereof” (Vibliome Therapeutics, LLC, priority 2020, dated 2023).

Key:
Test in all cases: Kinase panel (mobility shift)
Type in all cases: biochemical
KIT = KIT (Homo sapiens, UniProt P10721)
Procedure: (§1) The disclosed compounds were tested for activity against a panel of 299 kinases. The target enzyme was incubated with fluorescently labeled substrate and test compounds in a standardized reaction mixture in 384 well plates. Upon termination of the reaction, samples were introduced onto microfluidic chips. The samples migrated through channels in the chips and product and substrate were separated based on the difference in their charge (electrophoretic mobility shift). Enzyme activity was measured by direct comparison of the fluorescence in the product and substrate peaks. […] In the tables A=95% or greater at 5 um, B=90%-94% at 5 um, and C=80%-89% at 5 um. [note to draft: we included category D for 50-79 and category E is less than 50%. Feel free to remove if not needed)

BRK = BRK (Homo sapiens, UniProt Q13882)
Procedure: as §1

AXL = target: T1, AXL (Homo sapiens, UniProt P30530)
T1 sequence (P30530 26-894): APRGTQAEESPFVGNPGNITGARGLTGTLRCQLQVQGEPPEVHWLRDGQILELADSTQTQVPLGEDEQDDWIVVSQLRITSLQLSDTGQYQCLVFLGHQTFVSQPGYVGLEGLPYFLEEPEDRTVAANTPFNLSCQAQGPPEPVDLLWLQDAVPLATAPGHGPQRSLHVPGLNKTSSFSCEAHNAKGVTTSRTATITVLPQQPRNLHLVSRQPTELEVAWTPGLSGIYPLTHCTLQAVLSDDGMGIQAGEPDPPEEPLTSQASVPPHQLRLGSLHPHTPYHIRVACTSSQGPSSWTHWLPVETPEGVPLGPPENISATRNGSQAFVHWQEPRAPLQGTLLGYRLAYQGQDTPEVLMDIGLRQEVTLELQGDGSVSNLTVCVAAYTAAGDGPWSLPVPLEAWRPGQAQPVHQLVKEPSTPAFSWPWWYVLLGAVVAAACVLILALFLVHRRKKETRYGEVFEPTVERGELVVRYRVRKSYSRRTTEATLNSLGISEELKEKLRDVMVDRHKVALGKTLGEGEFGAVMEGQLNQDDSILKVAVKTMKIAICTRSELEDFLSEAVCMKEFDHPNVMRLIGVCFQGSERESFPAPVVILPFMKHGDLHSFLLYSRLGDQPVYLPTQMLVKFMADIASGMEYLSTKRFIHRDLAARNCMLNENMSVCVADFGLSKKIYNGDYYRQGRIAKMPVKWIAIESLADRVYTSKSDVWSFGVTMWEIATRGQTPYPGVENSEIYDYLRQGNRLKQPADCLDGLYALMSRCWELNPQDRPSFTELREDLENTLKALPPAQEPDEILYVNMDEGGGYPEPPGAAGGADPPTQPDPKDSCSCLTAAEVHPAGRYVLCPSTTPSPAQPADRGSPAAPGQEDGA
Procedure: as §1

TRKB = TRKB (Homo sapiens, UniProt Q16620)
Procedure: as §1

LCK = LCK (Homo sapiens, UniProt P06239)
Procedure: as §1

DDR2 = target: T2, DDR2 (Homo sapiens, UniProt Q16832)
T2 sequence (Q16832 22-855): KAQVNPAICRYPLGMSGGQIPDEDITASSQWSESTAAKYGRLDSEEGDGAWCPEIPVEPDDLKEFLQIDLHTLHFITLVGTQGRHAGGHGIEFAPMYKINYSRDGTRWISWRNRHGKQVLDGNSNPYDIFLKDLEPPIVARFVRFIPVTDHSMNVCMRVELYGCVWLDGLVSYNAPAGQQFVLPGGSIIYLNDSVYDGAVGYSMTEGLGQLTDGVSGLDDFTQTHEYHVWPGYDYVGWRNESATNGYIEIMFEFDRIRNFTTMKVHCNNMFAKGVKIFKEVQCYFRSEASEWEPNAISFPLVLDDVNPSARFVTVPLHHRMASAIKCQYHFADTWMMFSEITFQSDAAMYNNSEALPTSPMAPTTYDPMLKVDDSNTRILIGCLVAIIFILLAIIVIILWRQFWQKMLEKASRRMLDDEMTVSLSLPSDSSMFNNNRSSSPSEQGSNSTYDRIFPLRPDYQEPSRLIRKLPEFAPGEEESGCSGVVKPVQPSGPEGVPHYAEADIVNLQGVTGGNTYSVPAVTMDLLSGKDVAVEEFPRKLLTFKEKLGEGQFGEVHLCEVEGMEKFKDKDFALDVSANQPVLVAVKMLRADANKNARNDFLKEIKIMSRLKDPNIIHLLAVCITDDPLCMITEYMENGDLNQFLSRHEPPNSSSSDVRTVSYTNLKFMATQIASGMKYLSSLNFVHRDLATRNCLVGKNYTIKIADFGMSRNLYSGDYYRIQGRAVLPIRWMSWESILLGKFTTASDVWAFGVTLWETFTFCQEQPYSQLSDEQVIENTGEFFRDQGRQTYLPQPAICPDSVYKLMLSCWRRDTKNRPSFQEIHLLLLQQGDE
Procedure: as §1

TRKB, sequence (Q16620 32-822, species assumed): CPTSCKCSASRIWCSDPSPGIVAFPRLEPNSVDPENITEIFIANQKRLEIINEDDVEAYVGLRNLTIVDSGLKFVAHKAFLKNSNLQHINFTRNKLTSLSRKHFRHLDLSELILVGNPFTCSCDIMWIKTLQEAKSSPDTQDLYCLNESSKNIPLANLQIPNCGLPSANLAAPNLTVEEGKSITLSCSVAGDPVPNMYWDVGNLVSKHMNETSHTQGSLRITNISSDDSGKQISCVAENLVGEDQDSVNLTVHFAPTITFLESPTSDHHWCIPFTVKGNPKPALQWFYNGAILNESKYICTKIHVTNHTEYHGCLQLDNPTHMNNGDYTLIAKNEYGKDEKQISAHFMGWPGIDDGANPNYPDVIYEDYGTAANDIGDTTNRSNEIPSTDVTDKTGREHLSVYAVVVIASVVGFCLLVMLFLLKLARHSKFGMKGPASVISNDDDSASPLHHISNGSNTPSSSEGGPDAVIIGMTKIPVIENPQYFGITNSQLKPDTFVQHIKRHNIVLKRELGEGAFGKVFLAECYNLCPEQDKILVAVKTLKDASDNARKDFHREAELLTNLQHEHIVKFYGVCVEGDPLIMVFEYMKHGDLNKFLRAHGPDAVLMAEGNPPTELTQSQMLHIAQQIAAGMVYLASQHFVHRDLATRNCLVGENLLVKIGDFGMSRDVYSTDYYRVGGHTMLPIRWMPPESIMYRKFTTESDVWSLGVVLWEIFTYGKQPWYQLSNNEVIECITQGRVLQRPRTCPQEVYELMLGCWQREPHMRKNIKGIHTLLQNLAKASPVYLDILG
LCK, sequence (P06239 whole entry, species assumed): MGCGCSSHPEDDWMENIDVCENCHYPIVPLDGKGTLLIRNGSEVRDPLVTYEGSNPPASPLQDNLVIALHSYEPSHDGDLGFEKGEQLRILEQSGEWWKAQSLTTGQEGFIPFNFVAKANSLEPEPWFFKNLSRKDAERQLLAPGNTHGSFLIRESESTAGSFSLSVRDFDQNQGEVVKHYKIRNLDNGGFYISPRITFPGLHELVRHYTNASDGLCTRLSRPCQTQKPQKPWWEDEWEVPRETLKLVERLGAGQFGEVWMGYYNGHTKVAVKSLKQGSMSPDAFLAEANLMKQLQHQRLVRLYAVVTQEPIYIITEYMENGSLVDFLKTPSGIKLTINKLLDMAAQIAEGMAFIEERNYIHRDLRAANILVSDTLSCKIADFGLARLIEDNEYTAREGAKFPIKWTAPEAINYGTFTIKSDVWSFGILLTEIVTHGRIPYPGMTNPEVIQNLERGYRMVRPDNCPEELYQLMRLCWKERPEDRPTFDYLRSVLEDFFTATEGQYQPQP
BRK, sequence (Q13882 whole entry, species assumed): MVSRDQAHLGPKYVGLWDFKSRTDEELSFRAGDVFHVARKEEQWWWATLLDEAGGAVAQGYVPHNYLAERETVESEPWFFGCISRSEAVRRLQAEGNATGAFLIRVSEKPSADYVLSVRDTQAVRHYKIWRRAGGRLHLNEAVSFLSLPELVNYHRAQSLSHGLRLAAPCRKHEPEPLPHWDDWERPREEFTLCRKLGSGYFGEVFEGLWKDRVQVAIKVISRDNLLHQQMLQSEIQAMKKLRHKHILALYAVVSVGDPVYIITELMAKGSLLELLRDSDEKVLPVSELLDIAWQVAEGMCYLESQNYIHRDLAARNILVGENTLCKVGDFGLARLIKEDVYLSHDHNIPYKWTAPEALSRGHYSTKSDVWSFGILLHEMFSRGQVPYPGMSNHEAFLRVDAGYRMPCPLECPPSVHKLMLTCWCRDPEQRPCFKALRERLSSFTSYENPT
KIT, sequence (P10721 26-976, species assumed): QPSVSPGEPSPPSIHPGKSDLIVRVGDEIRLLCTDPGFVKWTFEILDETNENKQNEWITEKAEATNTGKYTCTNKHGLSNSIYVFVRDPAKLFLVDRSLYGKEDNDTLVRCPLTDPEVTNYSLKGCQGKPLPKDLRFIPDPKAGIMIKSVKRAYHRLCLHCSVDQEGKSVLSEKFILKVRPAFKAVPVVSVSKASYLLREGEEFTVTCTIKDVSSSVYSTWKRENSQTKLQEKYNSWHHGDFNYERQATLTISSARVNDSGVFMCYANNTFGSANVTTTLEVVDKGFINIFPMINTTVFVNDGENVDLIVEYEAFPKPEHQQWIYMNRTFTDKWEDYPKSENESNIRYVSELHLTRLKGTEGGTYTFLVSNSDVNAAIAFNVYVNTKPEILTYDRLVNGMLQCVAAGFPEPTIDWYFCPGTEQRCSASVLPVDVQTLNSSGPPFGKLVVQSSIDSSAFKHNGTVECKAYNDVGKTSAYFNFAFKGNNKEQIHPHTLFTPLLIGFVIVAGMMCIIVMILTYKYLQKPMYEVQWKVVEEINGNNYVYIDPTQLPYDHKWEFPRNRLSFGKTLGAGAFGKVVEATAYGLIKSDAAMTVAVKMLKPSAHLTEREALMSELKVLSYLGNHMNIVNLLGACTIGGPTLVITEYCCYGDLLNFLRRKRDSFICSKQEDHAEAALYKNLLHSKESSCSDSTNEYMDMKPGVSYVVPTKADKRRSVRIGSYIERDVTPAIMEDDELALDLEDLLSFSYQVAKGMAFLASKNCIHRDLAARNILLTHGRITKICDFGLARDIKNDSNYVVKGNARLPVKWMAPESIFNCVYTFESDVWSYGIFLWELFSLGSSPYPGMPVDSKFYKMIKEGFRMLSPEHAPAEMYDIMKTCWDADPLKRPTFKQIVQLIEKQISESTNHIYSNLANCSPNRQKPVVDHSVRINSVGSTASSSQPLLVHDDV

inhibition at 5 µM (KIT) [%]	inhibition at 5 µM (BRK) [%]	inhibition at 5 µM (AXL) [%]	inhibition at 5 µM (TRKB) [%]	inhibition at 5 µM (LCK) [%]	inhibition at 5 µM (DDR2) [%]	SMILES
50 to 79	≥ 95	50 to 79	80 to 89	80 to 89	90 to 94	CNC(=O)c1cc(Oc2ccc(NC(=O)c3nc(COC)oc3-c3ccc(F)cc3)cc2F)ccn1 [Compound 30]
< 50	80 to 89	< 50	< 50	< 50	50 to 79	CSc1nc(C(=O)Nc2ccc(Oc3ccnc(C(=O)NC4COC4)c3)c(F)c2)c(-c2ccc(F)cc2)o1 [Compound 31]
< 50	≥ 95	80 to 89	< 50	80 to 89	80 to 89	CNC(=O)c1cc(Oc2ccc(NC(=O)c3nc(OC4CC4)oc3-c3ccc(F)cc3)cc2F)ccn1 [Compound 32]
< 50	50 to 79	< 50	< 50	50 to 79	80 to 89	[2H]C([2H])([2H])NC(=O)c1cc(Oc2ccc(NC(=O)c3nc(SC)oc3-c3ccc(F)c(F)c3)cc2F)ccn1 [Compound 33]
50 to 79	90 to 94	50 to 79	50 to 79	80 to 89	50 to 79	CNC(=O)c1cc(Oc2ccc(NC(=O)c3nc(SC(C)C)oc3-c3ccc(F)cc3)cc2F)ccn1 [Compound 34]
< 50	< 50	< 50	< 50	< 50	50 to 79	[2H]C([2H])([2H])NC(=O)c1cc(Oc2ccc(NC(=O)c3nc(SC)oc3-c3ccc(F)s3)cc2F)ccn1 [Compound 35]
< 50	< 50	< 50	< 50	< 50	< 50	CNC(=O)c1ccc(Oc2ccc(NC(=O)c3nc(Cl)oc3-c3ccc(F)cc3)c(F)c2)cn1 [Compound 36]
< 50	< 50	< 50	< 50	< 50	< 50	CSc1nc(C(=O)Nc2ccc(Oc3ccnc(C(=O)NC4COC4)c3)c(F)c2)c(-c2ccc(F)c(F)c2)o1 [Compound 37]
< 50	90 to 94	80 to 89	< 50	50 to 79	50 to 79	CNC(=O)c1cc(Oc2ccc(NC(=O)c3nc(OCC(F)(F)F)oc3-c3ccc(F)cc3)cc2F)ccn1 [Compound 38]
< 50	50 to 79	< 50	< 50	< 50	50 to 79	COc1nc(C(=O)Nc2ccc(Oc3ccnc(C(=O)NC4COC4)c3)c(F)c2)c(-c2ccc(F)cc2)o1 [Compound 39]
< 50	50 to 79	< 50	< 50	< 50	50 to 79	CSc1nc(C(=O)Nc2ccc(Oc3ccnc(C(=O)NCC(F)(F)F)c3)c(F)c2)c(-c2ccc(F)cc2)o1 [Compound 40]
< 50	≥ 95	< 50	< 50	50 to 79	50 to 79	CSc1nc(C(=O)Nc2ccc(Oc3ccnc(C(=O)NCCN(C)C)c3)c(F)c2)c(-c2ccc(F)cc2)o1 [Compound 41]
< 50	≥ 95	< 50	< 50	< 50	50 to 79	CSc1nc(C(=O)Nc2ccc(Oc3ccnc(C(=O)NC4CCN(C)CC4)c3)c(F)c2)c(-c2ccc(F)cc2)o1 [Compound 42]
< 50	< 50	< 50	< 50	< 50	< 50	COc1nc(C(=O)Nc2ccc(Oc3ccnc(C(=O)NCC(F)(F)F)c3)c(F)c2)c(-c2ccc(F)cc2)o1 [Compound 43]
